Measured values reported in US7078400B2, “20-HETE synthase inhibitor” (Taisho Pharmaceutical Co., Ltd., priority 1999, dated 2006).

Key:
[1] = tested on: 20-HETE synthase originated from rat kidney microsome; test: Inhibitory effect of 20-HETE synthase originated from rat kidney microsome; format: biochemical; settings: rat kidney microsome; for Inhibition rate (1 μM): 20-HETE production without compound set to 100%
Method: Experimental Example [Inhibitory effect of 20-HETE synthase originated from rat kidney microsome]
Regarding the compounds listed in Table 1, their inhibitory activity to production of 20-HETE was examined.
The subject compound for this examination was added to a buffer comprising 50 mM of 3-morpholinopropane sulfonic acid (pH7.4), 5 mM of magnesium chloride and 1 mM of ethylenediaminetetraacetic acid (EDTA) disodium salt.
After that, the rat kidney microsome (microsome fraction prepared from the kidney of a spontaneous hypertension rat (male, 6 weeks of age)) as an enzyme, [5,6,8,9,11,12,14,15] tritium-arachidonic acid (supplied by Amasham) as a substrate, and NADPH (supplied by Sigma) as a coenzyme were added and reacted for 1.5 hours at 37° C.
After the reaction, formic acid was added to stop the reaction, and then acetonitrile (final concentration of 50%) was added and left for 1.5 hours at room temperature.
The activity of 20-HETE synthase was measured by using a high performance liquid chromatograph having a detector for radioactive substances (supplied by Gilson), and equipped with a C18 reversed phase column (Biocyl C18, supplied by Bio-rad).

[2] = 1 μM of the subject compound added
[3] = concentration at which production of 20-HETE was inhibited to 50%
[4] = concentration at which 20-HETE production was inhibited to 50%

SMILES	melting point	IC50 [1, 3] [nM]	IC50 [1, 4] [nM]	Inhibition rate (1 μM) [1, 2]	Inhibition rate (1 μM) ([1]; 1 μM of subject compound)
CC(C)c1cccc(N/C=N/O)c1 [Comp. 29]	93 to 94.5 °C			93.6	
O/N=C/Nc1c(Br)cccc1Br [Comp. 33]	171 °C			91.9	
O/N=C/Nc1ccc(Br)cc1 [Comp. 36]	163 to 164 °C	136		98.3	
CCCOC(=O)c1ccc(N/C=N/O)cc1 [Comp. 44]	145 to 146 °C	8.1			
Cc1cc(C)c(N/C=N/O)c(Br)c1 [Comp. 45]	163.5 to 164.5 °C			53.5	
O/N=C/Nc1cccc(C(F)(F)F)c1 [Comp. 46]	100.5 to 102 °C	355		48.5	
O/N=C/Nc1cc(C(F)(F)F)cc(C(F)(F)F)c1 [Comp. 49]	122.5 to 124 °C			46.7	
Cc1cc(C)c(N/C=N/O)c(C)c1 [Comp. 72]	168 to 169 °C			99.2	
O/N=C/Nc1c(Cl)cc(Cl)cc1Cl [Comp. 121]	166.5 to 167 °C			72.0	
O/N=C/Nc1cccc(Oc2ccccc2)c1 [Comp. 124]	100 to 102 °C	354		92.2	
COc1cccc(C(F)(F)F)c1N/C=N/O [Comp. 125]	138 to 139.5 °C (dec.)			67.6	
O/N=C/Nc1ccc(Oc2ccc(Cl)cc2)cc1 [Comp. 128]	143 to 145 °C	7		102.0	
Cc1ccc(Oc2ccc(N/C=N/O)cc2)cc1 [Comp. 130]	155 to 156 °C	6.9		116.5	
O/N=C/Nc1ccc(Oc2ccccc2)cc1 [Comp. 131]	144 to 145.5 °C	26		89.2	
OCCc1ccc(N/C=N/O)cc1 [Comp. 207]	138 to 140 °C		11.6		90.7
OCc1ccc(N/C=N/O)cc1 [Comp. 209]	169.5 to 170 °C		152		102.2
C#CCOc1ccc(N/C=N/O)cc1 [Comp. 227]	139 to 141 °C		39.7		117.8
O/N=C/Nc1ccccc1-c1ccccc1 [Comp. 234]	111 to 113 °C				74.1
O/N=C/Nc1ccc(Br)c2ccccc12 [Comp. 235]	167.5 to 168 °C		5920		77.8
O/N=C/Nc1ccc(/C=C/c2ccccc2)cc1 [Comp. 237]	197.5 to 198 °C		26.2		96.6

SMILES	melting point	IC50 [1, 3] [nM]	IC50 [1, 4] [nM]	Inhibition rate (1 μM) [1, 2]	Inhibition rate (1 μM) ([1]; 1 μM of subject compound)
O/N=C/Nc1ccc2c(c1)CCC2 [Comp. 238]	142.5 to 144 °C		30		101.6
O=C(c1ccccc1)c1ccc(N/C=N/O)cc1 [Comp. 239]	182.5 to 183 °C		4080		
O/N=C/Nc1ccc(-n2ccc(C(F)(F)F)n2)cc1 [Comp. 273]	165 to 167 °C		96.8		89.2
Cc1cc(NC(=O)c2ccccc2)c(Cl)cc1N/C=N/O [Comp. 276]	207 to 207.5 °C		55.9		71.8
O/N=C/Nc1ccc(N2CCCCC2)cc1 [Comp. 294]	162 to 162.5 °C		4.9		103.2
O/N=C/Nc1ccc(N2CCOCC2)cc1 [Comp. 300]	182 to 182.5 °C		5.7		96.3
CC(C)Oc1ccc(N/C=N/O)cc1 [Comp. 316]	144 to 146 °C		24		97.9
CCCCCOc1ccc(N/C=N/O)cc1 [Comp. 319]	126 to 137.5 °C		3.8		99.9
CCCCCCOc1ccc(N/C=N/O)cc1 [Comp. 320]	125 to 126 °C		1.3		92.5
CCCCCCCOc1ccc(N/C=N/O)cc1 [Comp. 321]	121 to 122.5 °C		3.7		99.9
CCCCCCCCCOc1ccc(N/C=N/O)cc1 [Comp. 323]	128 to 130 °C		25.9		
CC(C)(C)COc1ccc(N/C=N/O)cc1 [Comp. 324]	148.5 to 149.5 °C		3.7		99
CC(C)(C)CCOc1ccc(N/C=N/O)cc1 [Comp. 325]	123 to 125 °C		2.6		106
C=CCCCOc1ccc(N/C=N/O)cc1 [Comp. 329]	127 to 128 °C		0.7		121.1
C=CCCOc1ccc(N/C=N/O)cc1 [Comp. 330]	122 to 124 °C		2.4		118.8
C#CCCCOc1ccc(N/C=N/O)cc1 [Comp. 331]	139 to 139.5 °C		3.2		118.8
C/C=C/C=C/COc1ccc(N/C=N/O)cc1 [Comp. 332]	169.5 to 170 °C		2.1		110.6
CC(C)=CCOc1ccc(N/C=N/O)cc1 [Comp. 334]	125 to 126 °C		3.2		105
C#CCCOc1ccc(N/C=N/O)cc1 [Comp. 335]	139 to 141 °C		1.4		110
C/C=C/COc1ccc(N/C=N/O)cc1 [Comp. 336]	142.5 to 146 °C		3.2		117.6

The next lines start with results.

melting point	IC50 [1, 3] [nM]	IC50 [1, 4] [nM]	SMILES	Inhibition rate (1 μM) [1, 2]	Inhibition rate (1 μM) ([1]; 1 μM of subject compound)
131 to 132 °C	6.6		CCCc1ccc(N/C=N/O)cc1 [Comp. 31]	97.8	
114 to 115 °C			CC(C)c1ccccc1N/C=N/O [Comp. 32]	87.2	
163 to 163.5 °C	79.7		O/N=C/Nc1ccc(Br)cc1Br [Comp. 34]	90.6	
151 to 152.5 °C	79.8		Cc1cc(Cl)ccc1N/C=N/O [Comp. 38]	89.8	
160 to 161 °C			O/N=C/Nc1ccc(Cl)cc1Cl [Comp. 40]	98.2	
161 to 161.5 °C	49		Cc1cc(Br)ccc1N/C=N/O [Comp. 41]	96.6	
144 to 145 °C			CCC(C)c1ccccc1N/C=N/O (stereo not shown) [Comp. 42]	99.9	
123 to 124 °C	168		Cc1ccc(F)c(N/C=N/O)c1 [Comp. 43]		
166 to 166.5 °C	6.5		Cc1cc(I)ccc1N/C=N/O [Comp. 47]	94.8	
155.5 to 156.5 °C	25.5		O/N=C/Nc1ccc(F)cc1F [Comp. 50]		
157 to 158 °C	21.8		Cc1cc(N/C=N/O)ccc1Br [Comp. 51]	50.2	
130.5 to 132 °C			Cc1ccc(N/C=N/O)cc1I [Comp. 55]	31.3	
144 to 145.5 °C			CCc1cc(C#N)ccc1N/C=N/O [Comp. 56]	50.6	
146.5 to 148 °C	7.1		CC(C)c1ccc(N/C=N/O)c(Br)c1 [Comp. 58]	99.9	
133.5 to 134.5 °C			O/N=C/Nc1cccc(Br)c1 [Comp. 82]	70.9	
106 to 107.5 °C	28.9		CCOC(=O)Cc1ccc(N/C=N/O)cc1 [Comp. 122]	94.7	
172.5 to 173 °C (dec.)			O=[N+]([O-])c1cc(F)ccc1N/C=N/O [Comp. 126]	34.9	
156 to 157 °C	13.4		Cc1ccc(N/C=N/O)cc1F [Comp. 161]	88.6	
121 to 122.5 °C	9		Cc1cc(N/C=N/O)ccc1C(C)C [Comp. 178]	91.4	
194 to 195 °C		16	N#Cc1ccc(-c2ccc(N/C=N/O)cc2)cc1 [Comp. 229]		99.3
168.5 to 169 °C		196	O/N=C/Nc1cccc2c1CCCC2 [Comp. 231]		92.9
154 to 155 °C		6.6	CCCC(=O)c1ccc(N/C=N/O)c(C)c1 [Comp. 232]		86.0
171.5 to 172 °C		2.2	CC#CCOc1ccc(N/C=N/O)cc1 [Comp. 333]		119.3
